In PMC9057277 (RSC Advances, 2020):
Where two headings read alike, the source gives them in different places.

Assays:
[1] = set-up: method as in PMID 30072617; conditions: male baboon, 90 min p.i. ref 18; cited from earlier work
purified ovine COX-1 = biological target: T1, purified ovine COX-1 (Ovis aries, UniProt P05979); test: COX Fluorescent Inhibitor Screening Assay Kit, COX-1
T1 sequence (P05979 25-600): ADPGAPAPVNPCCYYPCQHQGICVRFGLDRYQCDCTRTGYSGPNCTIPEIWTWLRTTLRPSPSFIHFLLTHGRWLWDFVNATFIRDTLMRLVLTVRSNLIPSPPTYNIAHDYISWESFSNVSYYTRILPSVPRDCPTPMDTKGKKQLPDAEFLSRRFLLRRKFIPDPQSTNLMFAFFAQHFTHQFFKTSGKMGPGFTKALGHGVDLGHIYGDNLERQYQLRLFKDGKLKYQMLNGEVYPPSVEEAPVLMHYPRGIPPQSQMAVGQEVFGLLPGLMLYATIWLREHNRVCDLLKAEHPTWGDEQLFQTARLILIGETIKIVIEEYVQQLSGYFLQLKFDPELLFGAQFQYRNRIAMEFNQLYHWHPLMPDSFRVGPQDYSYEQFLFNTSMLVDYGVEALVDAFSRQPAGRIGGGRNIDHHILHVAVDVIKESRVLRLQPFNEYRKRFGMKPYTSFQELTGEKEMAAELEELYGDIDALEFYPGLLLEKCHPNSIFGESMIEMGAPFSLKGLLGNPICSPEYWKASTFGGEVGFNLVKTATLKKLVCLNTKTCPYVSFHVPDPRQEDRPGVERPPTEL
Method: 7.4.1 COX inhibition assay
The COX inhibition potency against ovine COX-1 and human COX-2 was determined using the
fluorescence-based COX assay ’COX Fluorescent Inhibitor Screening Assay Kit‘ (catalog number
reported by us.7 In brief, as a measure of COX mediated conversion of arachidonic acid to PG H2 in the
presence of different inhibitor concentrations this assay utilizes the peroxidase component of COX and
analyzes the formation of fluorescent resorufin. All compounds were assayed in a concentration range
of 10 nM to 100 μM, and every inhibitor concentration was assayed in duplicate.
as internal control. IC50 values were estimated using a nonlinear logistic regression ﬁtting procedure
(sigmoidal dose−response model) with Prism Software.

COX-2 = test system: COX-2; set-up: method as in PMID 21900596; conditions: cited from earlier work
COX-1 = test system: COX-1; set-up: method as in PMID 21900596; conditions: 14C-based COX assay, previously reported by Uddin et al. ref 21; cited from earlier work
recombinant human COX-2 = biological target: T2, recombinant human COX-2 (Homo sapiens, UniProt P35354); test: COX Fluorescent Inhibitor Screening Assay Kit, COX-2; type: biochemical
T2 construct: purchased Cayman Chemical, Ann Arbor, MI 700100
T2 sequence (P35354 18-604): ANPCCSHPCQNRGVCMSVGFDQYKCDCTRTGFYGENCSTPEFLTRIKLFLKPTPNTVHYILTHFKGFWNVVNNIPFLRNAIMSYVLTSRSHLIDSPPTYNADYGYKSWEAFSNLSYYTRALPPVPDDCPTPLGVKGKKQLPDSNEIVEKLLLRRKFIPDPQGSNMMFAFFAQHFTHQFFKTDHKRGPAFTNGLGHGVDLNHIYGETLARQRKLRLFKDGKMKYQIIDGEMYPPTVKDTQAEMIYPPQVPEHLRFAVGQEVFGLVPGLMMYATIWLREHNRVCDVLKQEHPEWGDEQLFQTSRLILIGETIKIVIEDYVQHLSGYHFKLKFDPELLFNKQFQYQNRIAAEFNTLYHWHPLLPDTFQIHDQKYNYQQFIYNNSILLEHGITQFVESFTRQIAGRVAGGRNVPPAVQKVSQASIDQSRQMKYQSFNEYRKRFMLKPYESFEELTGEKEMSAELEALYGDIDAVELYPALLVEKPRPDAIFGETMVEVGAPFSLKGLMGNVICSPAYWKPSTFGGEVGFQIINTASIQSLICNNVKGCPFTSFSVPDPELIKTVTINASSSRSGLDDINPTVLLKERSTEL

[2] = biological target: 3-phosphoinositide-dependent kinase 1 (PDK1); conditions: cited from earlier work
[3] = biological target: phosphodiesterase-5 (PDE51A); set-up: method as in PMID 17383621; conditions: ref 54; cited from earlier work
CYP3A4 = test system: CYP3A4; set-up: method as in PMID 10681375, PMID 22336956; conditions: ref 12,51; cited from earlier work
hCA-XII = test system: hCA-XII; set-up: method as in PMID 23875171, PMID 16290146; conditions: ref 49 and 56; cited from earlier work
[4] = biological target: sarcoplasmic/ER Ca2+ ATPase (SERCA); set-up: method as in PMID 23875171, PMID 12076251; conditions: ref 49 and 55; cited from earlier work
protein kinase B (PKB) = biological target: protein kinase B (PKB); set-up: method as in PMID 16757698, PMID 14973075; conditions: ref 50 and 53; cited from earlier work
hCA-IX = test system: hCA-IX; set-up: method as in PMID 23875171, PMID 16290146; conditions: ref 49 and 56; cited from earlier work
[5] = Ex vivo biodistribution in healthy rats; conditions: for Biodistribution BAT: brown adipose tissue; for Biodistribution WAT: white adipose tissue
[6] = Metabolic stability in vivo: blood clearance, blood components, radiometabolites; set-up: species or system male Wistar rats; conditions: for half-life: male, Wistar, rat, arterial blood, iv, 70 MBq, i.v., arterial blood samples; for half-life / Intact compound in blood plasma: rats; for Intact compound in blood plasma: radio-HPLC
log D7.4 by HPLC method = type: physicochemical; conditions: HPLC retention on ODP-50 4B column (Shodex Asahipak); pH 7.4, HPLC-based method
[7] = Stability towards liver microsomes of mice; conditions: oxidative conditions plus MgCl2 5 mM, alamethicin 50 μg/mL, UDPGA 5 mM
[8] = i.v., 5 min p.i., n = 8, mean ± SD
[9] = i.v., 60 min p.i., n = 8, mean ± SD

Structure (SMILES): [11CH3]c1ccc(-c2cc(C(F)(F)F)nn2-c2ccc(S(N)(=O)=O)cc2)cc1 [[^11C]celecoxib]
- intact radiotracer in blood [1]: 17%

Structure (SMILES): Cc1ccc(-c2cc(CF)nn2-c2ccc(S(C)(=O)=O)cc2)cc1 [5a]
- IC50 (purified ovine COX-1): > 100 µM
- IC50 (COX-2; 14C-based COX assay, previously reported by Uddin et al. ref 21): 0.6 µM
- Selectivity index (COX-2; IC50 (COX-1)/IC50 (COX-2), from values previously reported by Uddin et al. ref 21): >7
- IC50 (COX-1): > 4 µM
- IC50 (recombinant human COX-2): 0.51 µM
- Selectivity index (recombinant human COX-2; IC50 (COX-1)/IC50 (COX-2)): >196

Structure (SMILES): Cc1ccc(-c2cc(C(F)(F)F)nn2-c2ccc(S(N)(=O)=O)cc2)cc1 [Celecoxib]
- IC50 ([2]; ref 52): 3.5 µM
- IC50 ([2]; ref 53): 48 µM
- IC50 [3]: 16 µM
- extent of metabolism to the hydroxyl form by CYP3A4 (CYP3A4): < 25%
- IC50 (hCA-XII): 0.018 µM
- IC50 [4]: 35 µM
- IC50 (protein kinase B (PKB)): 28 µM
- IC50 (hCA-IX): 0.016 µM

Structure (SMILES): Cc1ccc(-c2cc(CC[18F])nn2-c2ccc(S(C)(=O)=O)cc2)cc1 [[^18F]5b]
- liver-to-bladder ratio (hepatobiliary vs renal excretion) ([5]; 60 min p.i.): 2.6
- Biodistribution BAT [5, 8]: 2.79 ± 0.85 SUV
- Biodistribution BAT [5, 9]: 1.12 ± 0.22 SUV
- Biodistribution adrenals [5, 8]: 2.95 ± 0.73 SUV
- Biodistribution blood [5, 8]: 0.32 ± 0.02 SUV
- Biodistribution brain [5, 8]: 0.5 ± 0.1 SUV
- Biodistribution femur [5, 8]: 0.6 ± 0.05 SUV
- Biodistribution harderian gland [5, 8]: 2.37 ± 0.19 SUV
- Biodistribution heart [5, 8]: 0.86 ± 0.07 SUV
- Biodistribution intestine [5, 8]: 14.17 ± 1.43 %ID
- Biodistribution kidneys [5, 8]: 2 ± 0.42 SUV
- Biodistribution liver [5, 8]: 3.37 ± 0.63 SUV
- Biodistribution lung [5, 8]: 1.06 ± 0.06 SUV
- Biodistribution muscle [5, 8]: 0.63 ± 0.09 SUV
- Biodistribution pancreas [5, 8]: 1.6 ± 0.16 SUV
- Biodistribution skin & hair [5, 8]: 0.98 ± 0.09 SUV
- Biodistribution spleen [5, 8]: 0.84 ± 0.12 SUV
- Biodistribution stomach [5, 8]: 1.35 ± 0.6 %ID
- Biodistribution testes [5, 8]: 0.47 ± 0.05 SUV
- Biodistribution thymus [5, 8]: 1.09 ± 0.23 SUV
- Biodistribution thyroid gland [5, 8]: 1.01 ± 0.1 SUV
- Biodistribution urine (calc.) [5, 8]: 0.02 ± 1.08 %ID
- Biodistribution adrenals [5, 9]: 0.9 ± 0.13 SUV
- Biodistribution blood [5, 9]: 0.08 ± 0.02 SUV
- Biodistribution brain [5, 9]: 0.09 ± 0.01 SUV
- Biodistribution femur (femur uptake, 18F-defluorination) [5, 9]: 1.0 ± 0.2 SUV
- Biodistribution harderian gland [5, 9]: 1.08 ± 0.18 SUV
- Biodistribution heart [5, 9]: 0.18 ± 0.02 SUV
- Biodistribution intestine [5, 9]: 41.52 ± 3.98 %ID
- Biodistribution kidneys [5, 9]: 0.57 ± 0.14 SUV
- Biodistribution liver [5, 9]: 0.74 ± 0.14 SUV
- Biodistribution lung [5, 9]: 0.25 ± 0.04 SUV
- Biodistribution muscle [5, 9]: 0.23 ± 0.05 SUV
- Biodistribution pancreas [5, 9]: 0.57 ± 0.14 SUV
- Biodistribution skin & hair [5, 9]: 0.32 ± 0.09 SUV
- Biodistribution spleen [5, 9]: 0.28 ± 0.08 SUV
- Biodistribution stomach [5, 9]: 0.94 ± 0.58 %ID
- Biodistribution testes [5, 9]: 0.24 ± 0.06 SUV
- Biodistribution thymus [5, 9]: 0.23 ± 0.04 SUV
- Biodistribution thyroid gland [5, 9]: 0.27 ± 0.06 SUV
- Biodistribution urine (calc.) [5, 9]: 15.85 ± 2.16 %ID
- Biodistribution WAT [5, 8]: 1.73 ± 0.84 SUV
- Biodistribution WAT [5, 9]: 1.81 ± 0.8 SUV
- half-life ([6]; read-out: t1/2 distribution (blood clearance of intact compound)): 1 min
- half-life ([6]; read-out: t1/2 elimination (blood clearance of intact compound)): 20.7 min
- Radioactivity distribution in blood components: erythrocytes ([6]; rat blood, 60 min p.i., + TCA): 23%
- Radioactivity distribution in blood components: plasma ([6]; rat blood, 60 min p.i., + TCA): 71%
- Radioactivity distribution in blood components: plasma supernatant ([6]; rat blood, 60 min p.i., + TCA): 35%
- Radioactivity distribution in blood components: plasma pellet (bound to plasma proteins) ([6]; rat blood, 60 min p.i., + TCA precipitation): 29%
- Radioactivity distribution in blood components: erythrocytes ([6]; rat blood, 60 min p.i., - TCA): 21%
- Radioactivity distribution in blood components: plasma ([6]; rat blood, 60 min p.i., - TCA): 67%
- Radioactivity distribution in blood components: plasma pellet ([6]; rat blood, 60 min p.i., - TCA): 1%
- Radioactivity distribution in blood components: plasma supernatant ([6]; rat blood, 60 min p.i., - TCA): 72%
- Intact compound in blood plasma ([6]; 20 min p.i.): 35%
- Intact compound in blood plasma ([6]; 60 min p.i.): 30%
- chromatographic logD (log D7.4 by HPLC method): 2.65
- glucuronidation in murine liver microsomes [7]: not observed
